Assay results reported in ChEMBL document CHEMBL5214908, “Small Scorpion-like Peptidomimetics: Potential Broad-Spectrum Membrane Active Antimicrobials without Detectable Resistance” (J Med Chem, 2021).
Values after ≈ are worked out from the molar mass of the structure shown.

Experiments:
[1] = system: Staphylococcus aureus; test: Antibacterial activity against methicillin-resistant Staphylococcus aureus assessed as reduction in bacterial growth; assay type: functional
[2] = Hemolytic activity in human RBC; assay type: toxicity, cell-based, Erythrocyte; conditions: human red blood cells (erythrocytes)
[3] = system: Staphylococcus epidermidis; test: Antibacterial activity against methicillin-resistant Staphylococcus epidermidis assessed as reduction in bacterial growth; assay type: functional
[4] = system: Enterococcus faecium; test: Antibacterial activity against vancomycin-resistant Enterococcus faecium assessed as reduction in bacterial growth; assay type: functional
[5] = system: Escherichia coli; test: Antibacterial activity against Escherichia coli assessed as reduction in bacterial growth; assay type: functional
[6] = system: Klebsiella pneumoniae; test: Antibacterial activity against Klebsiella pneumoniae assessed as reduction in bacterial growth; assay type: functional
[7] = system: Pseudomonas aeruginosa; test: Antibacterial activity against Pseudomonas aeruginosa assessed as reduction in bacterial growth; assay type: functional
[8] = system: Staphylococcus aureus; test: In vivo antibacterial activity against methicillin-resistant Staphylococcus aureus infected in murine assessed as log reduction in bacterial burden; assay type: functional; design: scale not given: the % may be the effect or the level left

Structure (SMILES)	MIC [1] [µg/mL]	HC50 [2] [µg/mL]	MIC [3] [µg/mL]	MIC [4] [µg/mL]	MIC [5] [µg/mL]	MIC [6] [µg/mL]	MIC [7] [µg/mL]	Activity [8] [%]
CCCCCCCCCNC(=O)[C@H](CCCCN)NC(=O)c1ccc(C(=O)N[C@@H](CCCCN)C(=O)NCCCCCCCCC)cc1	0.75 (≈ 1.11 µM)	180						
NCCCC[C@H](N)CN(CC(=O)Nc1cc(NC(=O)CN(C[C@@H](N)CCCCN)C(=O)CC23CC4CC(CC(C4)C2)C3)cc(C(=O)NCCNC(=O)CC23CC4CC(CC(C4)C2)C3)c1)C(=O)CC12CC3CC(CC(C3)C1)C2	2 (≈ 1.88 µM)	250	2 (≈ 1.88 µM)	2 (≈ 1.88 µM)	2 (≈ 1.88 µM)	2 (≈ 1.88 µM)	2 (≈ 1.88 µM)	99.998
